Test results published in PubChem BioAssay AID2060906 (Molecular Pharmacology Branch, DTP, NCI, 2025).
pIC50: −log10 of the molar value.

Tested on: 485176-168-R4-J1-PDC complex spheroid growth
Assay: Anticancer human tumor 485176-168-R4-J1-PDC patient-derived pancreatic adenocarcinoma cell line growth inhibition [RAS]
Conditions: for pIC50: curve of first compound; for viability, T/C: stronger effect = lower value
How it was run: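 Agents were tested in combination matrices in half-log decrements from a top concentration at or near clinical Cmax (10 microM if undetermined). Targets were multi-cell spheroids of tumour lines plus HUVEC and MSC stromal cells.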

[1] = second compound 0.00316 µM, first compound 0.0316 µM
[2] = second compound 0.00316 µM, first compound 0.1 µM
[3] = second compound 0.00316 µM, first compound 0.316 µM
[4] = second compound 0.00316 µM, first compound 1 µM
[5] = second compound 0.00316 µM, first compound 3.16 µM
[6] = second compound 0.00316 µM, first compound 10 µM
[7] = second compound 0.01 µM, first compound 0.0316 µM
[8] = second compound 0.01 µM, first compound 0.1 µM
[9] = second compound 0.01 µM, first compound 0.316 µM
[10] = second compound 0.01 µM, first compound 1 µM
[11] = second compound 0.01 µM, first compound 3.16 µM
[12] = second compound 0.01 µM, first compound 10 µM
[13] = second compound 0.0316 µM, first compound 0.0316 µM
[14] = second compound 0.0316 µM, first compound 0.1 µM
[15] = second compound 0.0316 µM, first compound 0.316 µM
[16] = second compound 0.0316 µM, first compound 1 µM
[17] = second compound 0.0316 µM, first compound 3.16 µM
[18] = second compound 0.0316 µM, first compound 10 µM
[19] = second compound 0.1 µM, first compound 0.0316 µM
[20] = second compound 0.1 µM, first compound 0.1 µM
[21] = second compound 0.1 µM, first compound 0.316 µM
[22] = second compound 0.1 µM, first compound 1 µM
[23] = second compound 0.1 µM, first compound 3.16 µM
[24] = second compound 0.1 µM, first compound 10 µM
[25] = second compound 0.316 µM, first compound 0.0316 µM
[26] = second compound 0.316 µM, first compound 0.1 µM
[27] = second compound 0.316 µM, first compound 0.316 µM
[28] = second compound 0.316 µM, first compound 1 µM
[29] = second compound 0.316 µM, first compound 3.16 µM
[30] = second compound 0.316 µM, first compound 10 µM
[31] = second compound 1 µM, first compound 0.0316 µM
[32] = second compound 1 µM, first compound 0.1 µM
[33] = second compound 1 µM, first compound 0.316 µM
[34] = second compound 1 µM, first compound 1 µM
[35] = second compound 1 µM, first compound 3.16 µM
[36] = second compound 1 µM, first compound 10 µM
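Also: spheroids exposed to compounds for seven days before readout.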
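For viability, T/C in this document: luminescence viability expressed relative to DMSO vehicle wells set as 100%.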

In the case of `CC1(O)CCCC1n1c(=O)c(C(F)F)cc2cnc(NC3CCN(S(C)(=O)=O)CC3)nc21` (stereo unspecified) + C=CC(=O)N1CCN(c2nc(OCC3CCCN3C)nc3c(F)c(-c4nc(N)cc(C)c4C(F)(F)F)c(Cl)cc23)C(C)C1, the pIC50 (second compound 0.00316 µM) was 5.71, the pIC50 (second compound 0.01 µM) was 5.63 and the pIC50 (second compound 0.0316 µM) was 5.68. For the same compound, the pIC50 (second compound 0.1 µM) was 5.65, the pIC50 (second compound 0.316 µM) was 5.44 and the pIC50 (second compound 1 µM) was 5.74. It also gave a viability, T/C [1] of 97%, a viability, T/C [2] of 77.5% and a viability, T/C [3] of 59%. It also gave a viability, T/C [4] of 60.3%, a viability, T/C [5] of 55.9% and a viability, T/C [6] of 4.16%. It also gave a viability, T/C [7] of 80.2%, a viability, T/C [8] of 61.8% and a viability, T/C [9] of 66.7%. For the same compound, the viability, T/C [10] was 67.7%, the viability, T/C [11] was 43.9% and the viability, T/C [12] was 2.59%. The viability, T/C [13] was 91.2%, the viability, T/C [14] was 81.6% and the viability, T/C [15] was 70.2%. For the same compound, the viability, T/C [16] was 58%, the viability, T/C [17] was 51.5% and the viability, T/C [18] was 2.26%. It also gave a viability, T/C [19] of 91.8%, a viability, T/C [20] of 74.5% and a viability, T/C [21] of 68.9%. It also gave a viability, T/C [22] of 68.7%, a viability, T/C [23] of 45% and a viability, T/C [24] of 3.32%. For the same compound, the viability, T/C [25] was 103%, the viability, T/C [26] was 62.5% and the viability, T/C [27] was 73.4%. For the same compound, the viability, T/C [28] was 68.1%, the viability, T/C [29] was 62% and the viability, T/C [30] was 3.67%. It also gave a viability, T/C [31] of 104%, a viability, T/C [32] of 86.8% and a viability, T/C [33] of 69.4%. It also gave a viability, T/C [34] of 49.1%, a viability, T/C [35] of 62.6% and a viability, T/C [36] of 2.11%.

`CC(Nc1ccc2c(c1)OCCn1cc(N3C(=O)OCC3C(F)F)nc1-2)C(N)=O` (stereo unspecified) + C=CC(=O)N1CCN(c2nc(OCC3CCCN3C)nc3c(F)c(-c4nc(N)cc(C)c4C(F)(F)F)c(Cl)cc23)C(C)C1 was tested, and the pIC50 (second compound 0.00316 µM) was less than 5.00, the pIC50 (second compound 0.01 µM) was less than 5.00 and the pIC50 (second compound 0.0316 µM) was less than 5.00. For the same compound, the pIC50 (second compound 0.1 µM) was less than 5.00, the pIC50 (second compound 0.316 µM) was less than 5.00 and the pIC50 (second compound 1 µM) was 5.09. For the same compound, the viability, T/C [1] was 91.2%, the viability, T/C [2] was 83.3% and the viability, T/C [3] was 64.8%. It also gave a viability, T/C [4] of 69.9%, a viability, T/C [5] of 58.1% and a viability, T/C [6] of 52.1%. It also gave a viability, T/C [7] of 90.3%, a viability, T/C [8] of 98.4% and a viability, T/C [9] of 88.9%. The viability, T/C [10] was 73.6%, the viability, T/C [11] was 77.9% and the viability, T/C [12] was 59.1%. The viability, T/C [13] was 102%, the viability, T/C [14] was 78.5% and the viability, T/C [15] was 79%. It also gave a viability, T/C [16] of 81.8%, a viability, T/C [17] of 63.6% and a viability, T/C [18] of 62.8%. For the same compound, the viability, T/C [19] was 82.9%, the viability, T/C [20] was 99% and the viability, T/C [21] was 63%. It also gave a viability, T/C [22] of 60.2%, a viability, T/C [23] of 61.8% and a viability, T/C [24] of 43.6%. The viability, T/C [25] was 108%, the viability, T/C [26] was 83% and the viability, T/C [27] was 81.5%. The viability, T/C [28] was 69.8%, the viability, T/C [29] was 75.6% and the viability, T/C [30] was 57.3%. The viability, T/C [31] was 85.9%, the viability, T/C [32] was 85.7% and the viability, T/C [33] was 69.5%. For the same compound, the viability, T/C [34] was 76.3%, the viability, T/C [35] was 55.7% and the viability, T/C [36] was 48.8%.

With `CCC(CC)c1cc(NC2CCC(N)C2)n2nccc2n1` (stereo unspecified) + C#Cc1c(F)ccc2cc(O)cc(-c3ncc4c(N5CC6CCC(C5)N6)nc(OCC56CCCN5CC(F)C6)nc4c3F)c12 the pIC50 (second compound 0.0316 µM) was 5.87, the pIC50 (second compound 0.1 µM) was 5.83 and the pIC50 (second compound 0.316 µM) was 5.79. The pIC50 (second compound 1 µM) was 5.79, the pIC50 (second compound 3.16 µM) was 5.82 and the pIC50 (second compound 10 µM) was 5.84. The viability, T/C [13] was 115%, the viability, T/C [14] was 80.2% and the viability, T/C [15] was 102%. For the same compound, the viability, T/C [16] was 67.5%, the viability, T/C [17] was 2.68% and the viability, T/C [18] was 0.57%. It also gave a viability, T/C [19] of 105%, a viability, T/C [20] of 106% and a viability, T/C [21] of 95.3%. It also gave a viability, T/C [22] of 74.5%, a viability, T/C [23] of 3.04% and a viability, T/C [24] of 0.56%. The viability, T/C [25] was 85.5%, the viability, T/C [26] was 103% and the viability, T/C [27] was 94.1%. The viability, T/C [28] was 83.5%, the viability, T/C [29] was 2.75% and the viability, T/C [30] was 0.5%. For the same compound, the viability, T/C [31] was 113%, the viability, T/C [32] was 89.7% and the viability, T/C [33] was 92%. For the same compound, the viability, T/C [34] was 83.1%, the viability, T/C [35] was 2.71% and the viability, T/C [36] was 0.44%. The viability, T/C (second compound 3.16 µM, first compound 0.0316 µM) was 103%, the viability, T/C (second compound 3.16 µM, first compound 0.1 µM) was 90.3% and the viability, T/C (second compound 3.16 µM, first compound 0.316 µM) was 97%. For the same compound, the viability, T/C (second compound 3.16 µM, first compound 1 µM) was 75.2%, the viability, T/C (second compound 3.16 µM, first compound 3.16 µM) was 3.48% and the viability, T/C (second compound 3.16 µM, first compound 10 µM) was 0.51%. The viability, T/C (second compound 10 µM, first compound 0.0316 µM) was 93.3%, the viability, T/C (second compound 10 µM, first compound 0.1 µM) was 96.3% and the viability, T/C (second compound 10 µM, first compound 0.316 µM) was 79%. The viability, T/C (second compound 10 µM, first compound 1 µM) was 73%, the viability, T/C (second compound 10 µM, first compound 3.16 µM) was 2.33% and the viability, T/C (second compound 10 µM, first compound 10 µM) was 0.39%.
